Data on five compounds can be found in publication PMC6768063 (Journal of computer-aided molecular design, 2019).

Test [1] has as its target T1, D2 receptor (Homo sapiens, UniProt P14416). The test can be described thus: calcium flux assay. The test is classed as cell-based. As to conditions: for EC50: read-out: EC50, agonist effect (calcium flux), D2/CHO-K1 cells, agonist mode. (Calcium assays in cells follow changes in intracellular calcium, usually with a dye or a luminescent sensor.)
For test [2], the target named is T1, D2 receptor. As to conditions: cited from earlier work.
Test [3] has as its target T2, D1 receptor (Homo sapiens, UniProt P21728). Kind of test: cAMP assay. The class given is cell-based. To be noted: for EC50: read-out: EC50, agonist effect (cAMP production), CHO-K1/D1 cells, agonist mode. Background: cAMP levels reflect the balance of adenylyl cyclase and phosphodiesterase activity.
In a further test the test system is D3 receptor. To be noted: cited from earlier work.
Test [4] addresses T1, D2 receptor. As to conditions: cited from earlier work. This is another data set of the same source.
The next test relates to 5-HT1A receptor. To be noted: cited from earlier work.
Test [5] addresses T2, D1 receptor. To be noted: cited from earlier work.

As a reminder, the IC50 is the concentration at which inhibition is half-maximal. Broadly, the EC50 is the concentration needed to bring the measured effect to its halfway point.

T1 sequence (P14416 whole entry): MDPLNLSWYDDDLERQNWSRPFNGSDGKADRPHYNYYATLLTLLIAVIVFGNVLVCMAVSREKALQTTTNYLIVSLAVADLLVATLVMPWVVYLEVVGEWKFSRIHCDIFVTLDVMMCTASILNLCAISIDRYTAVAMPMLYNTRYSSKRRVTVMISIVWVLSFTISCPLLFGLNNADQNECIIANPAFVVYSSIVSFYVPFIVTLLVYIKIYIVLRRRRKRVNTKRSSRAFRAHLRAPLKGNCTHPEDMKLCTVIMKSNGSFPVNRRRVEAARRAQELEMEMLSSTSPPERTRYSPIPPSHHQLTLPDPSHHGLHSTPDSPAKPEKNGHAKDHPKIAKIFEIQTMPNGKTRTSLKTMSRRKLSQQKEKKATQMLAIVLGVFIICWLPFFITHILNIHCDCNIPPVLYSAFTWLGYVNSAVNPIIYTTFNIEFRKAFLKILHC
T2 sequence (P21728 whole entry): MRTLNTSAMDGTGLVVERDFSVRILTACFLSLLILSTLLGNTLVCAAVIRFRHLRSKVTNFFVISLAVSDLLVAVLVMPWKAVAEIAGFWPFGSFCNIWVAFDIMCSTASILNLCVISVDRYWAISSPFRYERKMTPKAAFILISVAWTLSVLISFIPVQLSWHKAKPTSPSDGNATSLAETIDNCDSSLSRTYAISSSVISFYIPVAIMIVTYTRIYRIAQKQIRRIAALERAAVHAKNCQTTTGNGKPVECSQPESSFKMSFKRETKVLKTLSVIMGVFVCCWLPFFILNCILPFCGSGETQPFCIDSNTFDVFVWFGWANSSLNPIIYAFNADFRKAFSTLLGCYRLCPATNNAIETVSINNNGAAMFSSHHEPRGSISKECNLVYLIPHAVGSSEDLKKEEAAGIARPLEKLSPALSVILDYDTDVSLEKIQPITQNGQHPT

With `CN1CCc2cc(Cl)c(O)cc2[C@@H](c2ccccc2)C1` [SCH23390, reference compound], the half-maximal inhibitory concentration (IC50) at D2 receptor [1] came to 4.06 µM.
Consider `COc1cc2c(cc1OC)[C@H]1Cc3ccc(OC)c(OC)c3CN1CC2` [d-THP], for which the “binding affinity for the D2 receptor (in words)” value at D2 receptor [2] is listed as “low or absent affinity”.
As to `COc1ccc2c(c1O)CN1CCc3cc4c(cc3C1C2)OCO4` (stereo not drawn) [d-TU, Tetrahydroberberrubine], the “affinity against D2 receptor (in words)” value on D2 receptor [1] (based on the calcium flux assay) is reported as “no affinity”. In addition, the EC50 at D2 receptor [1] and at D1 receptor [3] was over 10 µM in each case. Besides, the “affinity against D1 receptor (in words)” value at D1 receptor [3] (based on the cAMP assay) is on record as “no affinity”.
With `COc1cc2c(cc1OC)[C@@H]1Cc3ccc(OC)c(OC)c3CN1CC2` [l-THP, l-tetrahydropalmatine], on D2 receptor [2], the “binding affinity for the D2 receptor (in words)” value is “high binding affinity”.
Take `COc1ccc2c(c1O)CN1CCc3cc4c(cc3C1C2)OCO4` (stereo not drawn) [l-TU, Tetrahydroberberrubine]: the “binding affinity for D3 receptor (in words)” value in the test on D3 receptor is reported as “high binding affinities”. For the same compound, the “binding affinity for D2 receptor (in words)” value at D2 receptor [4] is “high binding affinities”. In the test with 5-HT1A receptor, the “binding affinity for 5-HT1A receptor (in words)” value is listed as “high binding affinities”. Besides, the EC50 at D2 receptor [1] and at D1 receptor [3] was over 10 µM in each case. Moreover, at D1 receptor [5], the “binding affinity for D1 receptor (in words)” value is reported as “high binding affinities”.
